# Measured values published in patent US20240116985A1, “STAPLED PEPTIDES AND METHODS THEREOF” (priority 2020, published 2024).
# Read-outs that look alike come from different tables or passages of the source.
# Tests used:
# [1] = molecular target: T1, full-length beta-Catenin (Uniprot ID P35222) (Homo sapiens, UniProt P35222); test: Fluorescence polarization IC50 (beta-catenin / 5FAM-TCF4 10-53 competition); format: binding; details: fluorescence polarization; read-out: beta-Catenin FP IC50
# T1 construct: 10 nM full-length beta-Catenin (Uniprot ID P35222)
# T1 sequence (P35222 1-781): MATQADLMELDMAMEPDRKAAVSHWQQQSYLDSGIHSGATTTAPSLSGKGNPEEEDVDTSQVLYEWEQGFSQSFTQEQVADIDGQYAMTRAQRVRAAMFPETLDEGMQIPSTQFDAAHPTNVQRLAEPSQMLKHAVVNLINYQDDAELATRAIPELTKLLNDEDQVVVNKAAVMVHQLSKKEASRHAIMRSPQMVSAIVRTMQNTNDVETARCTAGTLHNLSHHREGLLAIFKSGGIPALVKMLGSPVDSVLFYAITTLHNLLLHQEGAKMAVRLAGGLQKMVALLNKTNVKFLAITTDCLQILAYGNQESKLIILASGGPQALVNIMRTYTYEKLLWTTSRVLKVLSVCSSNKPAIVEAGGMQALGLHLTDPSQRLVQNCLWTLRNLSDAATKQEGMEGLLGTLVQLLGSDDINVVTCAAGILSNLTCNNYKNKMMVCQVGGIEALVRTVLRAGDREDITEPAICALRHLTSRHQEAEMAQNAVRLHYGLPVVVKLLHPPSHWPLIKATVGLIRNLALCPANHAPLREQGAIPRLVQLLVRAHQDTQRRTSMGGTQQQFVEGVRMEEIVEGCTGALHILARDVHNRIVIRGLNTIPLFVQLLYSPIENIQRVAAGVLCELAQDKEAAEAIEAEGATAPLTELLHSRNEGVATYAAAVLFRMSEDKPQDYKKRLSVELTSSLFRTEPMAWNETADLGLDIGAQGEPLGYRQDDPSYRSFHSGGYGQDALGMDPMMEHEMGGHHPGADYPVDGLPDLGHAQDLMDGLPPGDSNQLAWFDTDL
# [2] = molecular target: T2, beta-catenin/TCF4 engagement (Homo sapiens, UniProt P35222); test: Nano-BRET target engagement assay (B-cat-Halo & TCF4-Luc in HEK293 cells); format: cell-based; details: read-out: NanoBRET Abs IC50
# T2 construct: expressed in transfected cells; host or cells: HEK293
# T2 sequence (P35222 1-781): T1 sequence (P35222 1-781)
SMILES,IC50 [1] [µM],IC50 ([2]; absolute IC50) [µM],IC50 [2] [µM]
"CC(=O)N1CCC[C@]12CC=CCCCC1(CCCC=CCCCOC(=O)N3CC[C@@](C(=O)N[C@@H](Cc4ccsc4)C(=O)N[C@@H](Cc4csc5ccccc45)C(=O)N[C@@H](CCC(N)=O)C(N)=O)(C3)NC(=O)[C@H](Cc3c[nH]cn3)NC(=O)[C@H](Cc3ccccc3)NC(=O)[C@H](C)NC(=O)C(C)(C)NC(=O)[C@H]([C@@H](C)O)NC(=O)[C@H](CC(N)=O)NC1=O)NC(=O)[C@H](CC(C)(C)C)NC(=O)[C@H](CC(=O)O)NC2=O (stereo partly drawn) [I-2410, Ac-PL3-Asp-Npg-B5-Asn-Thr-Aib-Ala-Phe-His-PyrS2-3Thi-BztA-Gln-NH2]",0.304,> 20,
"CC(=O)N1CCC[C@]12CC=CCCCC1(CCCC=CCCCCCC[C@@](C)(C(=O)N[C@@H](Cc3ccccc3)C(=O)N[C@@H](Cc3csc4ccccc34)C(=O)N[C@@H](CCC(N)=O)C(N)=O)NC(=O)[C@H](CCO)NC(=O)[C@H](Cc3ccccc3)NC(=O)[C@H](C)NC(=O)[C@H](C)NC(=O)[C@H](CC(=O)O)NC(=O)[C@H](CC(=O)O)NC1=O)NC(=O)[C@H](CC(C)(C)C)NC(=O)[C@H](CC(=O)O)NC2=O (stereo partly drawn) [I-1388, Ac-PL3-Asp-Npg-B5-Asp-Asp-Ala-Ala-Phe-Hse-S8-Phe-BztA-Gln-NH2]",0.018,11.3,
"CC(=O)N1CCC[C@]12CC=CCCCC1(CCCC=CCCCOC(=O)N3CC[C@@](C(=O)N[C@@H](Cc4ccsc4)C(=O)N[C@@H](Cc4csc5ccccc45)C(=O)N[C@@H](C)C(N)=O)(C3)NC(=O)[C@H](CC(C)C)NC(=O)[C@H](Cc3ccccc3)NC(=O)[C@H](C)NC(=O)[C@H](CCC(N)=O)NC(=O)[C@H](Cc3cc(C(=O)O)cc(C(F)(F)F)c3)NC(=O)[C@H](CC(=O)O)NC1=O)NC(=O)[C@H](CC(C)(C)C)NC(=O)[C@H](CC(=O)O)NC2=O (stereo partly drawn) [I-2211, Ac-PL3-Asp-Npg-B5-Asp-5F3Me3COOHF-Gln-Ala-Phe-Leu-PyrS2-3Thi-BztA-Ala-NH2]",0.023,12.9,
"CC(=O)N1CCC[C@]12CC=CCCCC1(CCCC=CCCCOC(=O)N3CC[C@@](C(=O)N[C@@H](Cc4ccsc4)C(=O)N[C@@H](Cc4csc5ccccc45)C(=O)N[C@@H](CCC(N)=O)C(N)=O)(C3)NC(=O)[C@H](CCC(=O)N3CCOCC3)NC(=O)[C@H](Cc3ccccc3)NC(=O)[C@H](C)NC(=O)[C@H](C)NC(=O)[C@H](CN(CC(=O)O)CC(F)(F)F)NC(=O)[C@H](CC(=O)O)NC1=O)NC(=O)[C@H](CC(C)(C)C)NC(=O)[C@H](CC(=O)O)NC2=O (stereo partly drawn) [I-1943, Ac-PL3-Asp-Npg-B5-Asp-TfeGA-Ala-Ala-Phe-[Morph]GlnR-PyrS2-3Thi-BztA-Gln-NH2]",0.007,,3.8
"CC(=O)N1CCC[C@]12CC=CCCCC1(CCCC=CCCCOC(=O)N3CC[C@@](C(=O)N[C@@H](Cc4ccccc4C(F)(F)F)C(=O)N[C@@H](Cc4c(C(F)(F)F)[nH]c5ccccc45)C(=O)N[C@@H](C)C(N)=O)(C3)NC(=O)[C@H](CC(C)C)NC(=O)[C@H](Cc3ccccc3)NC(=O)[C@H](C)NC(=O)[C@H](CCC(N)=O)NC(=O)[C@H](Cc3cccc(C(=O)O)c3)NC(=O)[C@H](CC(=O)O)NC1=O)NC(=O)[C@H](CC(C)(C)C)NC(=O)[C@H](CC(=O)O)NC2=O (stereo partly drawn) [I-2485, Ac-PL3-Asp-Npg-B5-Asp-3COOHF-Gln-Ala-Phe-Leu-PyrS2-2F3MeF-2F3MeW-Ala-NH2]",4.75,> 20,
"CC(=O)N1CC2CC1C(=O)N[C@@H](CC(=O)O)C(=O)N[C@@H](CC(C)(C)C)C(=O)NC1(CCCC=CCCCOC(=O)N3CC[C@@](C(=O)N[C@@H](Cc4ccccc4Cl)C(=O)N[C@@H](Cc4csc5ccccc45)C(=O)N[C@@H](CCC(N)=O)C(N)=O)(C3)NC(=O)[C@H]([C@@H](C)O)NC(=O)[C@H](Cc3ccccc3)NC(=O)[C@H](C)NC(=O)[C@H](C)NC(=O)[C@H](CN(CC(=O)O)CC(F)(F)F)NC(=O)[C@H](CC(=O)O)NC1=O)CCCC=CCCC(=O)O2 (stereo partly drawn) [I-1846, Ac-HyPEs5-Asp-Npg-B5-Asp-TfeGA-Ala-Ala-Phe-Thr-PyrS2-2C1F-BztA-Gln-NH2]",0.038,29.8,
"CC(=O)N[C@]1(C)CC=CCCCC2(CCCC=CCCCOC(=O)N3CC[C@@](C(=O)N[C@@H](Cc4ccccc4C(F)(F)F)C(=O)N[C@@H](Cc4csc5ccccc45)C(=O)N[C@@H](CCC(N)=O)C(N)=O)(C3)NC(=O)[C@H](CC(C)C)NC(=O)[C@H](Cc3ccccc3)NC(=O)[C@H](C)NC(=O)[C@H](C)NC(=O)[C@H](Cc3cccc(C(=O)O)c3)NC(=O)[C@H](CC(=O)O)NC2=O)NC(=O)[C@H](CC(C)(C)C)NC(=O)[C@H](CC(=O)O)NC1=O (stereo partly drawn) [I-2563, Ac-R3-Asp-Npg-B5-Asp-3COOHF-Ala-Ala-Phe-Leu-PyrS2-2F3MeF-BztA-Gln-NH2]",0.048,17,
"CC(=O)N1CCC[C@]12CC=CCCCC1(CCCC=CCCCOC(=O)N3CC[C@@](C(=O)N[C@@H](Cc4ccsc4)C(=O)N[C@@H](Cc4csc5ccccc45)C(=O)N[C@@H](CCC(N)=O)C(N)=O)(C3)NC(=O)[C@H](CC(N)=O)NC(=O)[C@H](Cc3ccccc3)NC(=O)[C@H](C)NC(=O)[C@H](C)NC(=O)[C@H](CN(CC(=O)O)Cc3c(F)c(F)c(F)c(F)c3F)NC(=O)[C@H](CC(=O)O)NC1=O)NC(=O)[C@H](CC(C)(C)C)NC(=O)[C@H](CC(=O)O)NC2=O (stereo partly drawn) [I-1639, Ac-PL3-Asp-Npg-B5-Asp-[Pfbn]GA-Ala-Ala-Phe-Asn-PyrS2-3Thi-BztA-Gln-NH2]",0.013,32.9,
"CC(=O)N1CCC[C@]12CC=CCCCC1(CCCC=CCCCOC(=O)N3CC[C@@](C(=O)N[C@@H](Cc4ccccc4Cl)C(=O)N[C@@H](Cc4csc5ccccc45)C(=O)N[C@H](C(N)=O)C(C)C)(C3)NC(=O)[C@H](C)NC(=O)[C@H](Cc3ccccc3)NC(=O)[C@H](C)NC(=O)[C@H](C)NC(=O)[C@H](Cc3cccc(C(=O)O)c3)NC(=O)[C@H](CC(=O)O)NC1=O)NC(=O)[C@H](CC(C)(C)C)NC(=O)[C@H](CC(=O)O)NC2=O (stereo partly drawn) [I-2024, Ac-PL3-Asp-Npg-B5-Asp-3COOHF-Ala-Ala-Phe-Ala-PyrS2-2C1F-BztA-Val-NH2]",0.078,,17.9
"CC(=O)N1CCC[C@]12CC=CCCCC1(CCCC=CCCCOC(=O)N3CC[C@@](C(=O)N[C@@H](Cc4ccccc4C(F)(F)F)C(=O)N[C@@H](Cc4csc5ccccc45)C(=O)N[C@@H](CCC(=O)N4CCOCC4)C(N)=O)(C3)NC(=O)[C@H](Cc3ccccc3)NC(=O)[C@H](Cc3ccccc3)NC(=O)[C@H](C)NC(=O)[C@H](C)NC(=O)[C@H](Cc3cccc(C(=O)O)c3)NC(=O)[C@H](CC(=O)O)NC1=O)NC(=O)[C@H](CC(C)(C)C)NC(=O)[C@H](CC(=O)O)NC2=O (stereo partly drawn) [I-2543, Ac-PL3-Asp-Npg-B5-Asp-3COOHF-Ala-Ala-Phe-Phe-PyrS2-2F3MeF-BztA-MorphGln-NH2]",0.037,7.3,
"CC(=O)N1CCC[C@]12CC=CCCCC1(CCCC=CCCCOC(=O)N3CC[C@@](C(=O)N[C@@H](Cc4ccsc4)C(=O)N[C@@H](Cc4csc5ccccc45)C(=O)N[C@@H](CCC(N)=O)C(N)=O)(C3)NC(=O)[C@H](CC3CCCCC3)NC(=O)[C@H](Cc3ccccc3)NC(=O)[C@H](C)NC(=O)[C@H](C)NC(=O)[C@H](CN(CC(=O)O)CC(F)(F)F)NC(=O)[C@H](CC(=O)O)NC1=O)NC(=O)[C@H](CC(C)(C)C)NC(=O)[C@H](CC(=O)O)NC2=O (stereo partly drawn) [I-1774, Ac-PL3-Asp-Npg-B5-Asp-TfeGA-Ala-Ala-Phe-Cha-PyrS2-3Thi-BztA-Gln-NH2]",0.028,8.9,
"CC(=O)N1CCC[C@]12CC=CCCCC1(CCCC=CCCCCOC(=O)N3CCC(C(=O)N[C@@H](Cc4ccsc4)C(=O)N[C@@H](Cc4csc5ccccc45)C(=O)N[C@@H](CCC(N)=O)C(N)=O)(CC3)NC(=O)[C@H](CC(C)C)NC(=O)[C@H](Cc3ccccc3)NC(=O)[C@H](C)NC(=O)[C@H](C)NC(=O)[C@H](Cc3cccc(C(=O)O)c3)NC(=O)[C@H](CC(=O)O)NC1=O)NC(=O)[C@H](CC(C)(C)C)NC(=O)[C@H](CC(=O)O)NC2=O (stereo partly drawn) [I-2590, Ac-PL3-Asp-Npg-B5-Asp-3COOHF-Ala-Ala-Phe-Leu-SPip3-3Thi-BztA-Gln-NH2]",0.025,,18.9
"CC(=O)N1CCC[C@]12CC=CCCCC1(CCCC=CCCCOC(=O)N3CC[C@@](C(=O)N[C@@H](Cc4ccccc4)C(=O)N[C@@H](Cc4csc5ccccc45)C(=O)N[C@@H](CCC(N)=O)C(N)=O)(C3)NC(=O)[C@H](CC(C)C)NC(=O)[C@H](Cc3ccccc3)NC(=O)[C@H](C)NC(=O)[C@H](CCCCNC(C)C)NC(=O)[C@H]([C@@H](C)O)NC(=O)[C@H](CC(=O)O)NC1=O)NC(=O)[C@H](CC1CCCCC1)NC(=O)[C@H](CC(N)=O)NC2=O (stereo partly drawn) [I-2448, Ac-PL3-Asn-Cha-B5-Asp-Thr-iPrLys-Ala-Phe-Leu-PyrS2-Phe-BztA-Gln-NH2]",0.084,> 20,
